We go through 20 compounds from PMC3606667 (Journal of natural products, 2013).

Structures are written as SMILES. Where two headings read alike, the source gives them in different places.

The test system of data set [1] is CCD-112CoN normal colon cell line. Description: Cytotoxicity against CCD-112CoN normal colon cell line. The data set is classed as cell-based. To be noted: read-out: CCD112CoNl ED50.
For the next data set, the target named is NF-κB (p65) (Homo sapiens, UniProt Q04206). Description: Enzyme-based ELISA NF-κB. The data set is classed as biochemical. To be noted: for NF-κB (p65) inhibitory activity (in words): ELISA assay; for times more potent than the control compound rocaglamide in NF-κB (p65) assay: relative to rocaglamide. (In general: An ELISA detects its analyte on a solid surface through an enzyme-linked reagent.)
Sequence of NF-κB (p65) (Q04206 whole entry): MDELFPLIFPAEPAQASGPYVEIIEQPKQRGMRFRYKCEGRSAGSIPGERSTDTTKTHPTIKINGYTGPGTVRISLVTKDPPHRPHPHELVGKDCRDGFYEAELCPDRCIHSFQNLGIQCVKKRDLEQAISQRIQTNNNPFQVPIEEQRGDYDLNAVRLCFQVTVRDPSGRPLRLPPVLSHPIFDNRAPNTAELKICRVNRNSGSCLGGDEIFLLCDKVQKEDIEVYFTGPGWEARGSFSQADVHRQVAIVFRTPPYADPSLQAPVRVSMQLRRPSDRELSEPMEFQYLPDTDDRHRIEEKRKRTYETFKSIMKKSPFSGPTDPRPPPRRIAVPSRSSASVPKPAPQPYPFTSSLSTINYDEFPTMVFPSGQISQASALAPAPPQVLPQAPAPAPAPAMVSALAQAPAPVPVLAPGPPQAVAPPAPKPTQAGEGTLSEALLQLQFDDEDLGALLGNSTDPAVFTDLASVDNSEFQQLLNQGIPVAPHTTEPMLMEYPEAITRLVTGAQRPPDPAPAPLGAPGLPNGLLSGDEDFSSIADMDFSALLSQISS

Data set [2] has as its system human monocytic leukemia cell line MONO-MAC-1. To be noted: cited from earlier work.
Data set [3] relates to human monocytic leukemia cell line MONO-MAC-6. To be noted: cited from earlier work.
Data set [4] concerns LNCaP human prostate cancer cells. To be noted: cited from earlier work.
In data set [5] the test system is HT-29 human colon cancer cells. Kind of data set: Cytotoxicity against HT-29 human colon cancer cells. The data set is classed as cell-based. To be noted: relative to perviridisin B (2), ED50 0.46 µM.
The mark [6] stands for this setting: NF-κB (p65) ED50, ELISA assay, ED50 > 20 µM inactive.

What is called IC50 is the concentration at which inhibition is half-maximal. Read a high IC50 as a need for much substance. Take `COC(=O)[C@H]1[C@@H](OC=O)[C@@]2(O)c3c(OC)cc(OC)cc3O[C@@]2(c2ccc(OC)cc2)[C@@H]1c1ccccc1` [Compound 15, methyl 1-formyloxyrocaglate]: in data set [1], the CC50 was more than 50 µM. On NF-κB (p65) (setting [6]), this compound yielded a 50% inhibitory concentration (IC50) of more than 20 µM.

As to `COC(=O)[C@H]1[C@@H](O)[C@@]2(OC)c3c(OC)cc(OC)cc3O[C@@]2(c2ccc3c(c2)OCO3)[C@@H]1c1ccccc1` [Compound 4, methyl 8b-O-methyl-4′-demethoxy-3′,4′-methylenedioxyrocaglate], the CC50 in data set [1] was more than 50 µM. On NF-κB (p65) (setting [6]), the IC50 was more than 20 µM.

Turning to `COC(=O)[C@H]1[C@@H](O)[C@@]2(O)c3c(OC)cc(OC)cc3O[C@@]2(c2ccc(OC)cc2)[C@@H]1c1ccccc1` [Compound 10, methyl rocaglate], the CC50 in data set [1] is more than 50 µM. The compound further gave a 50% inhibitory concentration (IC50) against NF-κB (p65) (setting [6]) of more than 20 µM.

Compound `COc1cc2ccc(=O)oc2cc1O` [scopoletin] gave an IC50 against NF-κB (p65) (setting [6]) of more than 20 µM.

On NF-κB (p65) (setting [6]), `COc1ccc([C@@]23Oc4cc(OC)cc(OC)c4[C@]2(OC)[C@H](O)C[C@H]3c2ccccc2)cc1` [8b-O-methylrocaglaol] returned an IC50 of more than 20 µM. In data set [2], the “cytotoxicity result in MONO-MAC-1” value is recorded as “negative result”. The “cytotoxicity result in MONO-MAC-6” value in data set [3] is “negative result”.

With `CC(C)[C@H]1CC[C@]2(C)C(=O)CCC(C=O)=C[C@H]12` [Compound 17, 2-oxaisodauc-5-en-12-al], at NF-κB (p65), the half-inhibitory concentration (IC50) amounted to 0.005 µM, the “NF-κB (p65) inhibitory activity (in words)” value is listed as “significant NF-κB (p65) inhibitory activity” and the “times more potent than the control compound rocaglamide in NF-κB (p65) assay” value is “more than 10 times”.

With `COC(=O)[C@H]1[C@@H](OC=O)[C@@]2(O)c3c(OC)cc(OC)cc3O[C@@]2(c2ccc3c(c2)OCO3)[C@@H]1c1ccccc1` [Compound 14, methyl 1-formyloxy-4′-demethoxy-3′,4′-methylenedioxyrocaglate], the CC50 in data set [1] was more than 50 µM.

Take `COc1cc(OC)c2c(c1)O[C@@]1(c3ccc4c(c3)OCO4)[C@H](c3ccccc3)C[C@@H](O)[C@@]21OC` [Compound 3, 8b-O-methyl-4′-demethoxy-3′,4′-methylenedioxyrocaglaol]: in data set [1], the CC50 is more than 50 µM. This compound gave an IC50 against NF-κB (p65) (setting [6]) of more than 20 µM.

As to `COc1ccc([C@@]23Oc4cc(OC)cc(OC)c4[C@]2(O)[C@H](O)[C@H](C(N)=O)[C@H]3c2ccccc2)cc1` [Compound 13, didesmethylrocaglamide], the CC50 in data set [1] was more than 50 µM. Also, at NF-κB (p65) (setting [6]), the IC50 was more than 20 µM.

With `COc1cc(OC)c2c(c1)O[C@@]1(c3ccc4c(c3)OCO4)[C@H](c3ccccc3)C[C@@H](O)[C@@]21O` [Compound 11, 4′-demethoxy-3′,4′-methylenedioxyrocaglaol], the CC50 in data set [1] was more than 50 µM. Further, on NF-κB (p65), half-maximal inhibition (IC50) required 0.33 µM and the “NF-κB (p65) inhibitory activity (in words)” value was “significant NF-κB (p65) inhibitory activity”.

As to `COc1ccc([C@@]23Oc4cc(OC)cc(OC)c4[C@]2(O)[C@H](O)C[C@H]3c2ccccc2)cc1` [Compound 9, rocaglaol], the CC50 in data set [1] was more than 50 µM. In addition, on NF-κB (p65), half-maximal inhibition (IC50) was put at 0.005 µM, the “NF-κB (p65) inhibitory activity (in words)” value is recorded as “significant NF-κB (p65) inhibitory activity” and the “times more potent than the control compound rocaglamide in NF-κB (p65) assay” value is “more than 10 times”. Further, the “effect on LNCaP cells (cell cycle, apoptosis)” value in data set [4] was “cause G2/M-phase cell cycle arrest and to induce apoptosis”.

Take `COc1ccc([C@@]23Oc4cc(OC)cc(OC)c4[C@]2(O)[C@H](O)[C@H](C(=O)N(C)C)[C@H]3c2ccccc2)cc1` [rocaglamide, reference compound]: the CC50 in data set [1] is more than 50 µM.

Consider `COc1ccc(-c2oc3cc(OC)cc(OC)c3c(=O)c2O)cc1` [5,7,4′-tri-O-methylkaempferol], for which the IC50 against NF-κB (p65) was more than 20 µM.

As to `COc1ccc([C@]23Oc4cc(OC)cc(OC)c4[C@](O)(C2O)[C@@H](c2ccccc2)[C@@H]3C(=O)NCCCCNC(=O)/C(C)=C/CO)cc1` (stereo partly shown) [Compound 2, perviridisin B], the CC50 in data set [1] was more than 50 µM. Also, the “NF-κB (p65) inhibitory activity (in words)” value on NF-κB (p65) is given as “significant NF-κB (p65) inhibitory activity”. On NF-κB (p65) (NF-κB (p65) ED50), the concentration for half-maximal inhibition (IC50) worked out at 2.4 µM.

For `CC(C)=C[C@H](O)[C@@H](O)[C@@H](CO)[C@H]1CC[C@@]2(C)[C@@H]3CC[C@H]4C(C)(C)[C@@H](O)CC[C@@]45C[C@@]35CC[C@]12C` [argenteanol], the 50% inhibitory concentration (IC50) at NF-κB (p65) (setting [6]) was more than 20 µM.

On NF-κB (p65), `CC1=CC(O)N(CCCCNC(=O)/C=C/c2ccccc2)C1=O` (stereo not shown) [gigantamide A] yielded a concentration for half-maximal inhibition (IC50) of more than 20 µM.

`CC1(C)[C@H](O)CC[C@]2(C)[C@H]3CC[C@@H]4[C@@H]([C@]5(C)CCC(=O)O5)CC[C@@]4(C)[C@]3(C)CC[C@@H]12` [cabraleahydroxylactone] showed a half-maximal inhibitory concentration (IC50) on NF-κB (p65) (setting [6]) of more than 20 µM.

With `COC(=O)[C@H]1[C@@H](O)[C@@]2(OC)c3c(OC)cc(OC)cc3O[C@@]2(c2ccc(OC)cc2)[C@@H]1c1ccccc1` [Compound 16, methyl 8b-O-methylrocaglate], in data set [1], the CC50 is more than 50 µM. This compound also showed an IC50 at NF-κB (p65) (setting [6]) of more than 20 µM. Further, the “cytotoxicity result in MONO-MAC-1” value in data set [2] is “negative result”. For the same compound, the “cytotoxicity result in MONO-MAC-6” value in data set [3] is given as “negative result”.

As to `COC(=O)[C@H]1[C@@H](O)[C@@]2(O)c3c(OC)cc(OC)cc3O[C@@]2(c2ccc3c(c2)OCO3)[C@@H]1c1ccccc1` [Compound 12, methyl 4′-demethoxy-3′,4′-methylenedioxyrocaglate], the CC50 in data set [1] was more than 50 µM. Moreover, on NF-κB (p65), the IC50 stood at 3.54 µM and the “NF-κB (p65) inhibitory activity (in words)” value is given as “significant NF-κB (p65) inhibitory activity”.

On to `COc1ccc([C@]23Oc4cc(OC)cc(OC)c4[C@](O)(C2O)[C@@H](c2ccccc2)[C@@H]3C(=O)NCCCCNC(=O)/C(C)=C/CO)cc1` (stereo partly shown) [Compound 1, perviridisin A], for which, in data set [5], the “times less active than its C-10 epimer perviridisin B (2) against HT-29 cells” value is reported as “over 25 times”. The same compound registered a concentration for half-maximal inhibition (IC50) on NF-κB (p65) (setting [6]) of more than 20 µM.
